Results: a compilation of properties of binary mixtures (doi:10.1021/acs.jced.0c00298)

Assay: xn = mol fraction of the nth substance listed
Details: 100 kPa

CO + CC[n+]1ccn(CCOC)c1.O=S(=O)([N-]S(=O)(=O)C(F)(F)F)C(F)(F)F
x2 = 0
Details	viscosity [mPa·s]
288.15 K	0.623
293.15 K	0.58
298.15 K	0.541
303.15 K	0.505

CC[n+]1ccn(CCOC)c1.O=S(=O)([N-]S(=O)(=O)C(F)(F)F)C(F)(F)F + CO
viscosity [mPa·s]
Details	x1 = 0.1	x1 = 0.1997	x1 = 0.2999	x1 = 0.3966	x1 = 0.5	x1 = 0.5984	x1 = 0.6953	x1 = 0.7934	x1 = 0.9016	x1 = 1
288.15 K	1.982	4.2	–	11.27	–	–	30.4	–	47.6	54.62
293.15 K	1.791	3.71	6.22	9.6	13.37	18.95	25.01	30.37	38.28	–
298.15 K	–	3.297	–	8.27	11.39	16.24	20.9	25.15	31.34	35.49
303.15 K	1.486	2.951	–	7.21	–	13.93	17.85	21.12	26.04	–
308.15 K	1.362	–	–	–	8.55	–	15.37	–	21.94	24.58
313.15 K	1.252	2.408	3.827	5.611	7.51	–	–	–	18.75	20.86
318.15 K	1.155	2.193	–	5.009	6.66	9.11	11.53	13.65	16.34	18.03
